Molecular target: RBP4 (Homo sapiens, UniProt P02753)
Conditions: read-out: RBP4 – SPA IC50

SMILES | IC50
Cc1cc(-c2nnn[nH]2)nc(N2C[C@H]3C[C@@H](c4ccccc4C(F)(F)F)C[C@H]3C2)n1 [BPN-15585] | 0.0075 µM
O=C(c1nc2ncccn2n1)N1C[C@H]2C[C@@H](c3ccccc3OC(F)(F)F)C[C@H]2C1 [compound 93] | 0.041 µM

— paper doi:10.64898/2026.09.14.751502v1 (bioRxiv, 2026)
